Test results published in patent EP3714904B1, “IMINODIACETIC ACID SUBSTITUTED CYCLODEXTRINS AS POTENTIATORS OF BETA-LACTAM ANTIBIOTICS” (NATIONAL CENTER FOR SCIENTIFIC RESEARCH "DEMOKRITOS" (NCSRD), priority 2019, dated 2020).
Where two headings read alike, the source gives them in different places.

Legend:
[1] = target: T1, MBL containing crude enzyme preparation (Kpn LA-26 NDM-1) (Klebsiella pneumoniae, UniProt C7C422); test: 1H NMR monitoring of meropenem hydrolysis by MBL crude enzyme preparation; assay type: biochemical; settings: meropenem 0.18 mM, absence of β-IDACYD, 6 h incubation
T1 construct: an MBL containing crude enzyme preparation (Kpn LA-26 NDM-1, 485 µL); endogenous in cells; host or cells: Klebsiella pneumoniae clinical strain LA-26 (crude enzyme preparation)

[2] = test system: NDM-1 producing K. pneumoniae clinical strain LA 26; test: Murine sepsis model: single dose treatment scheme-1; assay type: in vivo, CD-1 mice; settings: meropenem monotherapy, single dose 30 mg/kg; 70 hours post infection
Protocol: Example 8. In-vivo murine sepsis model: Single dose treatment scheme-1: Neutropenic 7-8 weeks old CD-1 female mice weighing 29 to 32 grams were infected interperitoneally with a lethal dose (10^7 CFU) of the NDM-1 producing K. pneumoniae clinical strain LA 26 as described previously. […] The meropenem/ β-IDACYD combination was administrated in all dosing schemes simultaneously. Blood samples were taken 0, 6, 24 hours and 3 days after injection of a single dose of antibiotic (five infected animals for each timepoint) and were serially diluted in normal saline (10^-1 to 10^-9) and plated on MH agar plates which were incubated for 16 hours at 37 °C for determination of viable organisms. All mice were euthanised 3 days post infection and spleen and liver were harvested. Organs were placed into 1 mL of normal saline on ice and then homogenised. Organ homogenates were then serially diluted in normal saline (10^-1 to 10^-9) and plated on MH agar plates for CFU enumeration. In the absence of therapy 30% of mice remained alive 70 hours post infection. […] The bacterial burden in the blood 70 hours post treatment was relieved by 4.8log10 in the presence of 120 mg/kg of β-IDACYD compared to that of the antibiotic monotherapy. […] In Fig. 7 is shown the bacterial load (CFU/mL) and survival percentage of CD-1 mice infected with a lethal dose (10^7 CFU) of NDM-1 producing K. pneumoniae strain LA26. […] Treatment was given in a form of a single shot 2h after infection and blood was drawn 0h, 6h, 24h and 70h post treatment initiation. All groups were of n=10. Error bars are indicative of SEM (n=2 replicates).

Klebsiella pneumoniae = test: MIC of β-lactams alone or with 50 µM IDACYD against clinical isolates; assay type: cell-based; settings: Klebsiella pneumoniae, alone
Protocol: Further the in-vitro inhibitory activity of IDACYDs was tested against highly resistant pathogens. […] Table 2: Collection of clinical isolates used for in-vitro evaluation

Escherichia coli = test: as above; assay type: cell-based; settings: Escherichia coli, alone
Protocol: (§1) Further the in-vitro inhibitory activity of IDACYDs was tested against highly resistant pathogens. Tables 3, 4 and 5 show the effect of IDACYDs using a collection of 36 highly resistant Gram negative strains (Table 2, Kirby-Bauer disc diffusion method) producing NDM, VIM and IMP type MBLs as well as 6 isolates expressing serine beta-lactamases (ESBLs, AmpCs). […] Clinical isolates co-expressing ESBLs and/or AmpC β-lactamases along with MBLs where re-sensitized to both imipenem and meropenem, as expected. Table 2: Collection of clinical isolates used for in-vitro evaluation

Acinetobacter baumannii = test: as above; assay type: cell-based; settings: Acinetobacter baumannii, alone
Protocol: as §1

Enterobacter gergoviae = test: as above; assay type: cell-based; settings: Pluralibacter gergoviae, alone
Protocol: as §1

Providencia stuartii = test: as above; assay type: cell-based; settings: Providencia stuartii, alone
Protocol: as §1

Proteus mirabilis = test: as above; assay type: cell-based; settings: Proteus mirabilis, alone
Protocol: as §1

Serratia marcescens = test: as above; assay type: cell-based; settings: Serratia marcescens, read-out: Meropenem MIC; isolate EUG-815 (VIM, CMY); alone
Protocol: as §1

T1 sequence (C7C422 29-270 limits assumed): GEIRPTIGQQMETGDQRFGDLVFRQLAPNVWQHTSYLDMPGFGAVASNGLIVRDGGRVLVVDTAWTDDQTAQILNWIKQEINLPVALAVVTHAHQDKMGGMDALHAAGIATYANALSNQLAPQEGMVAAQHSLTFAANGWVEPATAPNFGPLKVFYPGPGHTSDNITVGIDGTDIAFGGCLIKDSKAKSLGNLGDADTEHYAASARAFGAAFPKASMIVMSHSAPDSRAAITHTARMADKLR

`C[C@@H](O)[C@H]1C(=O)N2C(C(=O)O)=C(S[C@@H]3CN[C@H](C(=O)N(C)C)C3)[C@H](C)[C@H]12` [Meropenem, reference compound] gave a drug hydrolyzed [1] of roughly 100%, a survival [2] of 30% and an MIC (Klebsiella pneumoniae; read-out: Meropenem MIC, Kpn ESDY 5742 (IMP-1)) of 32 µg/mL. It also gave an MIC (Klebsiella pneumoniae; read-out: Meropenem MIC, Kpn LA 26 (NDM-1)) of 32 µg/mL, an MIC (Klebsiella pneumoniae; read-out: Meropenem MIC, Kpn LA 34 (VIM-1 CMY)) of 256 µg/mL and an MIC (Klebsiella pneumoniae; read-out: Meropenem MIC, Kpn LA 82/16 (VIM-1)) of 64 µg/mL. It also gave an MIC (Klebsiella pneumoniae; read-out: Meropenem MIC, Kpn LA 109/16 (VIM-1)) of 256 µg/mL, an MIC (Klebsiella pneumoniae; read-out: Meropenem MIC, Kpn LA419/16 (NDM-1)) of 16 µg/mL and an MIC (Klebsiella pneumoniae; read-out: Meropenem MIC, isolate ALX-47 (OXA-48,CTX-M)) of 8 µg/mL. It also gave an MIC (Klebsiella pneumoniae; read-out: Meropenem MIC, isolate ESDY-1780 (VIM, KPC)) of 64 µg/mL, an MIC (Klebsiella pneumoniae; read-out: Meropenem MIC, isolate ESDY-5742 (IMP)) of 16 µg/mL and an MIC (Klebsiella pneumoniae; read-out: Meropenem MIC, isolate EY-20S (CMY, SHV)) of 8 µg/mL. For the same compound, the MIC (Klebsiella pneumoniae; read-out: Meropenem MIC, isolate IT-17829 (CTXM, SHV)) was 32 µg/mL, the MIC (Klebsiella pneumoniae; read-out: Meropenem MIC, isolate L078/11 (KPC)) was 64 µg/mL and the MIC (Klebsiella pneumoniae; read-out: Meropenem MIC, isolate LA-26 (NDM)) was 32 µg/mL. It also gave an MIC (Klebsiella pneumoniae; read-out: Meropenem MIC, isolate LA-27 (NDM, CTXM)) of 8 µg/mL, an MIC (Klebsiella pneumoniae; read-out: Meropenem MIC, isolate LA-28 (NDM, CTXM)) of 64 µg/mL and an MIC (Klebsiella pneumoniae; read-out: Meropenem MIC, isolate LA-34 (VIM, CMY), first entry of Table 3) of 256 µg/mL. The MIC (Klebsiella pneumoniae; read-out: Meropenem MIC, isolate LA-34 (VIM, CMY), second entry of Table 3) was 64 µg/mL, the MIC (Klebsiella pneumoniae; read-out: Meropenem MIC, isolate LA-82/16 (VIM, SHV)) was 64 µg/mL and the MIC (Klebsiella pneumoniae; read-out: Meropenem MIC, isolate LA-419/16 (NDM,CTXM)) was 16 µg/mL. For the same compound, the MIC (Klebsiella pneumoniae; read-out: Meropenem MIC, isolate LAR-26I/15 (NDM, VIM, CTXM)) was 64 µg/mL, the MIC (Klebsiella pneumoniae; read-out: Meropenem MIC, isolate LAR-38I/15 (VIM, NDM, CTXM)) was 16 µg/mL and the MIC (Klebsiella pneumoniae; read-out: Meropenem MIC, isolate LAR-40II/15 (KPC)) was 64 µg/mL. The MIC (Klebsiella pneumoniae; read-out: Meropenem MIC, isolate LAR-2873 (VIM-12)) was 8 µg/mL, the MIC (Klebsiella pneumoniae; read-out: Meropenem MIC, isolate SEC-2 (VIM)) was 64 µg/mL and the MIC (Klebsiella pneumoniae; read-out: Meropenem MIC, isolate SEC-4 (VIM)) was 32 µg/mL. For the same compound, the MIC (Klebsiella pneumoniae; read-out: Meropenem MIC, isolate TZAN-59 (β-lactamase: None)) was 0.5 µg/mL, the MIC (Klebsiella pneumoniae; read-out: Meropenem MIC, isolate UoA 12/227 (VIM)) was 64 µg/mL and the MIC (Klebsiella pneumoniae; read-out: Meropenem MIC, isolate UoA 1995 (VIM)) was 64 µg/mL. The MIC (Escherichia coli; read-out: Meropenem MIC, isolate TZAN-116 (VIM)) was 1 µg/mL, the MIC (Escherichia coli; read-out: Meropenem MIC, isolate TZAN-541 (VIM)) was 2 µg/mL and the MIC (Acinetobacter baumannii; read-out: Meropenem MIC, isolate TZAN-40 (VIM, OXA-58)) was 4 µg/mL. It also gave an MIC (Acinetobacter baumannii; read-out: Meropenem MIC, isolate TZAN-42 (VIM, OXA-58)) of 32 µg/mL, an MIC (Enterobacter gergoviae; read-out: Meropenem MIC, isolate AK-5227 (VIM, CMY)) of 2 µg/mL and an MIC (Enterobacter gergoviae; read-out: Meropenem MIC, isolate AK-5240 (VIM, CMY)) of 1 µg/mL. It also gave an MIC (Providencia stuartii; read-out: Meropenem MIC, isolate ALX- 21 (VIM, VEB)) of 2 µg/mL, an MIC (Providencia stuartii; read-out: Meropenem MIC, isolate ALX-27 (VIM)) of 2 µg/mL and an MIC (Providencia stuartii; read-out: Meropenem MIC, isolate ESDY-4559 (VIM)) of 4 µg/mL. It also gave an MIC (Providencia stuartii; read-out: Meropenem MIC, isolate ESDY-4563 (VIM, VEB)) of 2 µg/mL, an MIC (Proteus mirabilis; read-out: Meropenem MIC, Table 5, Pr m ESDY 15315 (VIM-1, CMY)) of 16 µg/mL and an MIC (Proteus mirabilis; read-out: Meropenem MIC, isolate ALX-13 (VIM, VEB)) of 32 µg/mL. It also gave an MIC (Proteus mirabilis; read-out: Meropenem MIC, isolate ESDY-17 (VIM, CMY)) of 0.25 µg/mL, an MIC (Proteus mirabilis; read-out: Meropenem MIC, isolate ESDY-15184 (VIM, CMY)) of 2 µg/mL and an MIC (Proteus mirabilis; read-out: Meropenem MIC, isolate ESDY-15315 (VIM, CMY)) of 4 µg/mL. It also gave an MIC (Serratia marcescens) of 256 µg/mL.
